Reference: patent US20130310379A1, “MODULATORS OF METHYL MODIFYING ENZYMES, COMPOSITIONS AND USES THEREOF” (CONSTELLATION PHARMACEUTICALS, priority 2010, published 2013)

molecular target: EZH2 (Homo sapiens, UniProt Q15910); assay: EZH2 assay: rPRC2 with biotinylated oligonucleosome substrates and 3H SAM, FlashPlate scintillation counting, IC50; type: biochemical; details: rPRC2, biotinylated oligonucleosome substrates, 3H SAM; read-out: EZH2 IC50
Outline: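 rPRC2 (2 nM EZH2) pre-incubated 20 min with compound (80 to 0.16 uM, ten 2-fold steps), then 60 min reaction with 0.2 uM 3H SAM, 0.2 uM biotinylated oligonucleosomes, 3.6 uM H3K27me3 peptide in Tris pH 8.5. SAH/EDTA quench; 4-parameter IC50 fit.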

EZH2, sequence (Q15910 whole entry): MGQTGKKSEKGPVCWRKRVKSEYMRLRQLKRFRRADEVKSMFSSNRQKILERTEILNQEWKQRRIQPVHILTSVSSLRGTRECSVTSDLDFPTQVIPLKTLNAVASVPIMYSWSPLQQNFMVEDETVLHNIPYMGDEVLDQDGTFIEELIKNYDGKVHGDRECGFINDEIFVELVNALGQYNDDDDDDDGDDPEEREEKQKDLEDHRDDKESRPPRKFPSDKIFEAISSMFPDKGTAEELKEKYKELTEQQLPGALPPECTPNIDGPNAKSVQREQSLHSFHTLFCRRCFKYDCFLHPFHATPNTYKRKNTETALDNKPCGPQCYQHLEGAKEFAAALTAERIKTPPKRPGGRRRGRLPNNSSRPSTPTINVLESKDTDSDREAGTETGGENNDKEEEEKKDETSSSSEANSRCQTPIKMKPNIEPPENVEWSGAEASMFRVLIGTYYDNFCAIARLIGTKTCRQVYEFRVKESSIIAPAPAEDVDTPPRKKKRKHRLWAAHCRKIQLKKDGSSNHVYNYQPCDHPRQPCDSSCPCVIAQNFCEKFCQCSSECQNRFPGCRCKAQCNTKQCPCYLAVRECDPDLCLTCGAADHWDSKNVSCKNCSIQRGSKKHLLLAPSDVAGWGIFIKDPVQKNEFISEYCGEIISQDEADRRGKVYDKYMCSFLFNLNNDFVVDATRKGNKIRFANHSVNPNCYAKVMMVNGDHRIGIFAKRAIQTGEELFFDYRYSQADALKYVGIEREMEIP
EZH2, sequence (O75530 whole entry partner): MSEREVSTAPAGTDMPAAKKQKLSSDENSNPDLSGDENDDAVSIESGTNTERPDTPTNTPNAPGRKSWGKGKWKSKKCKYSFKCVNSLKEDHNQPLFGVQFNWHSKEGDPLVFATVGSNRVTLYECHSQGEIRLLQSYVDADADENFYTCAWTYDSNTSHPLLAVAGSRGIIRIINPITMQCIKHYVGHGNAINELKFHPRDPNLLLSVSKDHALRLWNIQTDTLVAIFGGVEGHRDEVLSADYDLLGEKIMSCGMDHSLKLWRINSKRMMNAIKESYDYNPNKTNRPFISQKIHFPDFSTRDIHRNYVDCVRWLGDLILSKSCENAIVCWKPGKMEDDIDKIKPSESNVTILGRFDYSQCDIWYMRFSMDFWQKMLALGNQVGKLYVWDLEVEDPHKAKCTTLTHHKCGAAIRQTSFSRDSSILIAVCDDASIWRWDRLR
EZH2, sequence (Q15022 whole entry partner): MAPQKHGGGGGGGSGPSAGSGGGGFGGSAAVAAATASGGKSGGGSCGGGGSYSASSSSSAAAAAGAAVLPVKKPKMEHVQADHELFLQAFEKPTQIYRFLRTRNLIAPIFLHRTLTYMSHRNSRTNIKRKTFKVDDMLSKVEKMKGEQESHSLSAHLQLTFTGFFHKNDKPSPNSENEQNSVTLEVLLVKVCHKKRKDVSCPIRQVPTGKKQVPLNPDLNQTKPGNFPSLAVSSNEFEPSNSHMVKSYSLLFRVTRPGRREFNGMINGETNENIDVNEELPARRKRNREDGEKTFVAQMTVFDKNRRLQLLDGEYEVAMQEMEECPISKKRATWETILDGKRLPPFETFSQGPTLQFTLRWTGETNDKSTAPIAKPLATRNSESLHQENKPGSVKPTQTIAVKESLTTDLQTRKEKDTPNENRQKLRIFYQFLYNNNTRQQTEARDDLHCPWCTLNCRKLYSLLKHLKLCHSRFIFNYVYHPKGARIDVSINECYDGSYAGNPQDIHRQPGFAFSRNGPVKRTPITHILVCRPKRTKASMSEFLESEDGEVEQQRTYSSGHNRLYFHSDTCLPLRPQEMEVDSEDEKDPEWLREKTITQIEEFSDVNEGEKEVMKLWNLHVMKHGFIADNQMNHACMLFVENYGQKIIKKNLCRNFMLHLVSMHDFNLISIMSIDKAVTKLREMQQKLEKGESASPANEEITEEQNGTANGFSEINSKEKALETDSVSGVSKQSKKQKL

Compound	IC50
Cc1ccc(-c2cccc(OCc3ccc(C(=O)NC4CC(C)(C)NC(C)(C)C4)cc3)c2)s1 [Compound I-18]	5 to 20 µM
O=C(NCc1ccccc1)c1ccc(Oc2ccccc2)cc1 [Compound I-141]	> 80 µM
CC1(C)CC(NC(=O)c2ccc(Oc3ccc(F)cc3)cc2)CC(C)(C)N1 [Compound I-86]	> 80 µM
COc1ccc(OCc2ccc(C(=O)NC3CC(C)(C)NC(C)(C)C3)cc2)cc1 [Compound I-63]	20 to 80 µM
C#Cc1cccc(OCc2ccc(C(=O)NC3CC(C)(C)NC(C)(C)C3)cc2)c1 [Compound I-184]	< 5 µM
COc1cc(Oc2ccccc2)ccc1C(=O)NC1CC(C)(C)NC(C)(C)C1 [Compound I-204]	> 80 µM
CN1C2CCC1CC(NC(=O)c1ccc(Oc3ccccc3)cc1)C2 (stereo not shown) [Compound I-114]	> 80 µM
CC1(C)CC(NC(=O)c2ccc(COc3cccnc3)cc2)CC(C)(C)N1 [Compound I-36]	20 to 80 µM
CC1(C)CC(NC(=O)c2ccc(COc3ccccc3)cc2)CC(C)(C)N1 [Compound I-39]	20 to 80 µM
COc1ccnc(Oc2ccc(C(=O)NC3CC(C)(C)NC(C)(C)C3)cc2)n1 [Compound I-109]	> 80 µM
Cc1cc(C)cc(Oc2ccc(C(=O)NC3CC(C)(C)NC(C)(C)C3)cc2)c1 [Compound I-119]	> 80 µM
CC1(C)CC(NC(=O)c2ccc(COc3cccc(-c4cccc(C#N)c4)c3)cc2)CC(C)(C)N1 [Compound I-51]	20 to 80 µM
CC1(C)CC(NC(=O)c2ccc(Oc3ccccc3C#N)c(Cl)c2)CC(c2ccccc2)N1 (stereo not shown) [Compound I-409]	20 to 80 µM
Cc1ccc(-c2cccc(OCc3ccc(C(=O)NC4CC(C)(C)NC(C)(C)C4)cc3)c2)cn1 [Compound I-14]	5 to 20 µM
CC1(C)CC(NC(=O)c2ccc(Oc3cccnc3C#N)cc2)CC(C)(C)N1 [Compound I-10]	5 to 20 µM
CC1(C)CC(NC(=O)c2ccc(N3CCOc4ccccc43)cc2)CC(C)(C)N1 [Compound I-440]	> 80 µM
Cc1ccc(Oc2ccc(C(=O)NC3CC(C)(C)NC(C)(C)C3)cc2)cc1C [Compound I-87]	> 80 µM
CC1(C)CC(NC(=O)c2ccc(Oc3ccccc3C#N)c(Cl)c2)CC(=O)N1 (stereo not shown) [Compound I-491]	> 80 µM
CC1(C)CC(NC(=O)c2ccc(C(C)(C)C)cc2)CC(C)(C)N1 [Compound I-138]	> 80 µM
CC1(C)CC(NC(=O)c2ccc(COc3cccc4cccnc34)cc2)CC(C)(C)N1 [Compound I-189]	20 to 80 µM
COc1cccc(Oc2ccc(C(=O)NC3CC(C)(C)NC(C)(C)C3)cc2)c1 [Compound I-71]	> 80 µM

Compound	IC50
CCC(C)c1ccccc1Oc1ccc(C(=O)NC2CC(C)(C)NC(C)(C)C2)cc1 (stereo not shown) [Compound I-170]	5 to 20 µM
CC1(C)CC(NC(=O)c2ccc(Oc3cccc4cnc(Cl)cc34)cc2)CC(C)(C)N1 [Compound I-315]	< 5 µM
CC1(C)CC(NC(=O)c2ccc(COc3ccccc3)c(Br)c2)CC(C)(C)N1 [Compound I-215]	20 to 80 µM
CC1(C)CC(NC(=O)c2ccc(Oc3cccc(OCc4ccccc4)c3)cc2)CC(C)(C)N1 [Compound I-168]	20 to 80 µM
COc1cc(Oc2ccccc2C#N)ccc1C(=O)NC1CC(C)(C)NC(C)(C)C1 [Compound I-191]	> 80 µM
CC1(C)CC(NC(=O)c2ccc(COc3cccc(-c4ccc(N)cc4)c3)cc2)CC(C)(C)N1 [Compound I-155]	20 to 80 µM
CC1(C)CC(NC(=O)c2ccc(Oc3ccccc3C#N)cc2)CC(C)(C)N1 [Compound I-6]	< 5 µM
CC(O)c1ccccc1Oc1ccc(C(=O)NC2CC(C)(C)NC(C)(C)C2)cc1 (stereo not shown) [Compound I-287]	20 to 80 µM
N#Cc1ccccc1Oc1ccc(C(=O)NC2CCNCC2)cc1Cl [Compound I-178]	> 80 µM
CC1(C)CC(NC(=O)c2ccc(COc3ccc(C#N)cc3)cc2)CC(C)(C)N1 [Compound I-67]	20 to 80 µM
CN(C)CCCNC(=O)c1ccc(Oc2ccccc2)cc1 [Compound I-140]	> 80 µM
CC1(C)CC(NC(=O)c2ccc(Oc3ccc(Cl)cc3)cc2)CC(C)(C)N1 [Compound I-91]	> 80 µM
CC1(C)CC(NC(=O)c2ccc(COc3cccc(Br)c3)cc2)CC(C)(C)N1 [Compound I-8]	5 to 20 µM
Cc1cc(-c2cccc(OCc3ccc(C(=O)NC4CC(C)(C)NC(C)(C)C4)cc3)c2)cnc1F [Compound I-27]	20 to 80 µM
CC1(C)CC(NC(=O)c2ccc(-n3ccc4c(O)cccc43)c(Cl)c2)CC(C)(C)N1 [Compound I-492]	< 5 µM
CC1(C)CC(NC(=O)c2ccc(Oc3ccccc3CC#N)cc2)CC(C)(C)N1 [Compound I-305]	20 to 80 µM
CCc1ccccc1Oc1ccc(C(=O)NC2CC(C)(C)NC(C)(C)C2)cc1 [Compound I-35]	20 to 80 µM
CC1(C)CC(NC(=O)c2ccc(OCCc3ccccc3)cc2)CC(C)(C)N1 [Compound I-84]	> 80 µM
Cc1cccc(OCc2ccc(C(=O)NC3CC(C)(C)NC(C)(C)C3)cc2)c1C [Compound I-54]	20 to 80 µM
CC1(C)CC(NC(=O)c2ccc(Oc3ccc(F)cc3C#N)cc2)CC(C)(C)N1 [Compound I-157]	20 to 80 µM

Results, then the compound that gave them:

IC50	Compound
20 to 80 µM	Cc1noc(C)c1-c1cc(C(=O)NC2CC(C)(C)NC(C)(C)C2)ccc1Oc1ccccc1C#N [Compound I-214]
< 5 µM	COc1cncc(-c2ccccc2Oc2ccc(C(=O)NC3CC(C)(C)NC(C)(C)C3)cc2Cl)c1 [Compound I-288]
< 5 µM	COC(=O)c1ccc(-c2ccccc2Oc2ccc(C(=O)NC3CC(C)(C)NC(C)(C)C3)cc2Cl)cn1 [Compound I-294]
5 to 20 µM	CC(O)c1cccc(Oc2ccc(C(=O)NC3CC(C)(C)NC(C)(C)C3)cc2Cl)c1-c1ccncc1 (stereo not shown) [Compound I-400]
> 80 µM	CC1(C)CC(NC(=O)c2ccc(N3CC(c4ccccc4)CC3=O)c(Cl)c2)CC(C)(C)N1 (stereo not shown) [Compound I-396]
< 5 µM	CC1(C)CC(NC(=O)c2ccc(Oc3cccc4cnccc34)c(Br)c2)CC(C)(C)N1 [Compound I-291]
20 to 80 µM	Cc1ccccc1Sc1ccc(C(=O)NC2CC(C)(C)NC(C)(C)C2)cc1Cl [Compound I-302]
> 80 µM	CC1(C)CC(NC(=O)c2ccc(Oc3ccccc3O)cc2)CC(C)(C)N1 [Compound I-123]
> 80 µM	CC1(C)CC(NC(=O)c2ccc(OC(C#N)c3ccccc3)c(Cl)c2)CC(C)(C)N1 (stereo not shown) [Compound I-421]
5 to 20 µM	CC1(C)CC(NC(=O)c2ccc(Oc3ccccc3C3CCCCC3)c(Cl)c2)CC(C)(C)N1 [Compound I-195]
< 5 µM	CC1(C)CC(NC(=O)c2ccc(Oc3cccc(-c4ncccn4)c3C#N)c(Cl)c2)CC(C)(C)N1 [Compound I-445]
< 5 µM	CNc1cccc(Oc2ccc(C(=O)NC3CC(C)(C)NC(C)(C)C3)cc2Cl)c1C#N [Compound I-348]
< 5 µM	CC1(C)CC(NC(=O)c2ccc(Oc3cncc(-c4ccncc4)c3C#N)c(Cl)c2)CC(C)(C)N1 [Compound I-520]
5 to 20 µM	CC1(C)CC(NC(=O)c2ccc(Oc3cccc4cccnc34)c(Cl)c2)CC(C)(C)N1 [Compound I-346]
< 5 µM	CC1(C)CC(NC(=O)c2ccc(Oc3cccc(-c4ccn[nH]4)c3C#N)c(Cl)c2)CC(C)(C)N1 [Compound I-338]
20 to 80 µM	COc1ccccc1Oc1ccc(C(=O)NC2CC(C)(C)NC(C)(C)C2)cc1 [Compound I-57]
< 5 µM	COc1cc(-c2cccc(Oc3ccc(C(=O)NC4CC(C)(C)NC(C)(C)C4)cc3Cl)c2C#N)ccn1 [Compound I-500]
< 5 µM	CC1(C)CC(NC(=O)c2ccc(Oc3cccc(C4CCOCC4)c3C#N)c(Cl)c2)CC(C)(C)N1 [Compound I-531]

IC50	Compound
< 5 µM	CC1(C)CC(NC(=O)c2ccc(Oc3ccccc3C#N)c(C3CC3)c2)CC(C)(C)N1 [Compound I-221]
< 5 µM	CC1(C)CC(NC(=O)c2ccc(Oc3cccc(-c4cnc(N)nc4)c3C#N)c(Cl)c2)CC(C)(C)N1 [Compound I-538]
< 5 µM	Cc1cccc(Oc2ccc(C(=O)NC3CC(C)(C)NC(C)(C)C3)cc2Cl)c1C#N [Compound I-309]
< 5 µM	CC1(C)CC(NC(=O)c2ccc(Oc3cccc(N4CCOCC4)c3C#N)c(Cl)c2)CC(C)(C)N1 [Compound I-391]
20 to 80 µM	CC(C)NCc1cccc(Oc2ccc(C(=O)NC3CC(C)(C)NC(C)(C)C3)cc2Cl)c1 [Compound I-422]
5 to 20 µM	CC1(C)CC(NC(=O)c2ccc(Oc3ccccc3C3=CCNCC3)c(Cl)c2)CC(C)(C)N1 [Compound I-229]
< 5 µM	CC1(C)CC(NC(=O)c2ccc(Oc3cccc(CC(N)=O)c3C#N)c(Cl)c2)CC(C)(C)N1 [Compound I-469]
< 5 µM	Cc1ccncc1-c1cccc(Oc2ccc(C(=O)NC3CC(C)(C)NC(C)(C)C3)cc2Cl)c1C#N [Compound I-365]
< 5 µM	CC1(C)CC(NC(=O)c2ccc(Oc3cccc(CCC(N)=O)c3C#N)c(Cl)c2)CC(C)(C)N1 [Compound I-501]
< 5 µM	Cn1cc(-c2cccc(Oc3ccc(C(=O)NC4CC(C)(C)NC(C)(C)C4)cc3Cl)c2C#N)cn1 [Compound I-336]
< 5 µM	CC1(C)CC(NC(=O)c2ccc(Oc3ccccc3-c3nccs3)c(Cl)c2)CC(C)(C)N1 [Compound I-278]
5 to 20 µM	CC1(C)CC(NC(=O)c2ccc(Oc3ccccc3)c(F)c2)CC(C)(C)N1 [Compound I-148]
< 5 µM	CC1(C)CC(NC(=O)c2ccc(Oc3ccccc3C#N)c(-c3ccccc3)c2)CC(C)(C)N1 [Compound I-197]
< 5 µM	CN(C)c1ccc(-c2cccc(Oc3ccc(C(=O)NC4CC(C)(C)NC(C)(C)C4)cc3Cl)c2C#N)cn1 [Compound I-557]
< 5 µM	CC1(C)CC(NC(=O)c2ccc(Oc3cccc(CCC(=O)N4CCCC4)c3C#N)c(Cl)c2)CC(C)(C)N1 [Compound I-553]
20 to 80 µM	CC1(C)CC(NC(=O)c2ccc(Oc3ccccc3)c(O)c2)CC(C)(C)N1 [Compound I-268]
< 5 µM	CC1(C)CC(NC(=O)c2ccc(Oc3cccc(-c4cncc(F)c4)c3C#N)c(Cl)c2)CC(C)(C)N1 [Compound I-528]
